Assay results taken from patent US20240423941A1, “MEDIUM CHAIN DICARBOXYLIC ACIDS FOR THE TREATMENT AND PREVENTION OF DISEASES AND CONDITIONS” (University of Pittsburgh - Of the Commonwealth System of …, priority 2021, published 2024).
“Also recorded” adds a separate entry of the source.

What was measured:
[1] = test system: ischemic AKI; test: Unilateral ischemic kidney injury (ischemic AKI); type: in vivo, male mice; settings: for BUN / kidney damage by H & E staining (dilated tubules, proteinaceous casts) / serum creatinine: diet-fed versus normal diet; for expression of the injury marker NGAL in proximal tubules: immunostaining
Text: FIG. 3. DC12 treatment mitigates ischemic kidney injury. Normal diet or DC12-fed male mice were subjected to ischemic AKI. […] Tubular dilation (arrows), debris, or proteinaceous casts are indicated (*). […] E,F) DC12-fed mice had lower serum creatinine and BUN, which are markers of kidney dysfunction. *p<0.05.
FIGS. 7A-7F. […] Normal diet or DC8-fed male mice were subjected to ischemic AKI. […] Tubular dilation (arrows), debris, or proteinaceous casts are indicated (*). […] FIGS. 7E,7F) DC8-fed mice had lower serum creatinine and BUN, which are markers of kidney dysfunction. ****p<0.0001.
DC12 is renoprotective. […] To test this, mice that had been fed ±10% DC12 for 7 days were subjected to unilateral ischemic kidney injury. In this model, the uninjured contralateral kidney is removed on Day 6 post-injury and used as control tissue, and the injured kidneys are collected one day later for analysis. The diet was continued during the 6-day recovery period post-injury, as well as after removing the contralateral kidney.
(§1) The effect of DC8 in ischemic AKI was also tested.

[2] = test system: lysine succinylation (Suc-Lys) PTMs; test: Western blotting of lysine succinylation in tissues of mice fed dicarboxylic acids; type: in vivo, wildtype C57Bl/6 mice; settings: for lysine succinylation (Suc-Lys) PTMs in kidney / lysine succinylation (Suc-Lys) PTMs in liver: fed 10% w/w for 7 days
Text: FIGS. 1A-1C. Feeding mice DCAs causes a dramatic shift in the post-translational modification (PTM) landscape. […] ND=normal diet. FIG. 1B) Mice were fed 10% DC12 for 0 to 7 days; some mice underwent a 7-day “washout” after 7 days on DC12.
FIG. 6. DC8 causes robust kidney specific succinylation. DC8, DC10 and DC12 were fed to wild-type mice at 10% w/w for 7 days.
(§2) We hypothesized that peroxisomes can chain-shorten DC12 as far as DC4-CoA, also known as succinyl-CoA. Such a mechanism would be predicted to 1) result in protein succinylation in the peroxisome, due to the known high chemical reactivity between lysine residues and succinyl-CoA; and 2) “feed” the mitochondrial TCA cycle with the products of DC12 chain-shortening, namely 2-carbon units (acetate) and succinate. We fed wildtype C57Bl/6 mice DC12 mixed into the diet and measured protein succinylation as a proxy for succinyl-CoA formation. […] The succinylation is seen to arise within 1 day and becomes maximal at 7 days (FIG. 1B). The effect is reversible when the diet is removed. DC12 degradation also produces acetyl-CoA. […] Like succinyl-CoA, glutaryl-CoA (DC5-CoA) is also highly reactive.
DC8 induces high-level, kidney-specific protein succinylation. […] Potential side effects caused by liver metabolization can be avoided, and the liver is not reducing the available agent.

[3] = test system: unilateral ureteral obstruction (UUO); test: Unilateral ureteral obstruction (UUO) model of interstitial fibrosis; type: in vivo; settings: DC8 fed versus control fed diet
Text: FIG. 14. DC8 treatment was also protective against a chronic kidney disease model of interstitial fibrosis. As was evidenced in the control fed diet 14A and A′ when the kidney was subjected to unilateral ureteral obstruction (UUO) that there was a significant amount of trichrome positive fibrosis in the interstitium (blue).

[4] = test system: long-chain acyl-CoA dehydrogenase (LCAD) knockout mice; test: LCAD knockout mice, model of mitochondrial long-chain fatty acid oxidation disorders; type: in vivo
Text: FIG. 11A-11E. DC12 and DC10 improve functioning in long-chain acyl-CoA dehydrogenase (LCAD) knockout mice, a mouse model of mitochondrial long-chain fatty acid oxidation disorders.

[5] = test system: lysine glutarylation (Glu-Lys); test: Western blotting of lysine glutarylation in mice fed DC11; type: in vivo; settings: 10% w/w for 7 days
[6] = test system: cisplatin kidney injury; test: Nephrotoxic (cisplatin) model of AKI; type: in vivo, male 129 WT mice
Procedure: FIGS. 5A-5B. DC12 treatment mitigates cisplatin kidney injury. Normal diet or DC12-fed (7 days pre-treatment+3 days post-treatment) male 129 WT mice were injected i.p. with 18 mg/kg cisplatin and sacrificed at day 3. (FIG. 5A) Reduction of serum bicarbonate by cisplatin-AKI was mitigated in DC12 treated mice. (FIG. 5B) Renal tubular injury by cisplatin is mitigated in DC12 treated mice. Magnified images for dotted boxed areas are shown. Tubular dilation, debris, or proteinaceous casts are indicated(*) n=6-7, mean±SEM, t-test, *p<0.05, Scale bars: 50 um
We also conducted a nephrotoxic model of AKI (cisplatin).
as §1

[7] = Treadmill run to exhaustion, blood lactate; type: in vivo, wildtype mice; settings: DC12 diet for 7 days
Procedure: (§3) FIGS. 10A-10D. DC12 protects against lactic acidosis. Wildtype mice were maintained on DC12 diet for 7 days, then run on a treadmill to exhaustion. […] Then, mice fed DC12 were tested for protection against metformin overdose, which is clinically known to induce a lethal lactic acidosis. After a single 400 mg/kg dose of metformin, 9/11 mice on control diet died, while 0/12 mice on DC12 diet died (FIG. 10B).

[8] = test system: metformin overdose; test: Metformin overdose (lactic acidosis); type: in vivo, mice
Procedure: as §3

[9] = test system: protein acetylation; test: Protein acetylation with pan anti-acetyllysine antibody in DC12-fed mice; type: in vivo
Text: as §2

[10] = test system: lysine succinylation PTMs in kidney; test: Quantitative mass spectrometry of contralateral and injured kidneys (AKI ± DC12); type: in vivo, mice
Text: FIGS. 4A-4C. Effects of injury and DC12 on protein succinylation PTMs. N=4 mice were subjected to AKI±7 days of 10% DC12. Contralateral (non-injured kidneys) served as control. Quantitative mass spectrometry was used to profile lysine succinylation PTMs at the protein and site-level. […] FIG. 4C) Succinylation of individual lysine-containing peptides from four key peroxisomal proteins, normalized to control diet non-injured levels.
Portions of contralateral control kidney and injured kidney were used for quantitative mass spectrometry, to measure both total protein abundance and site-level changes in lysine succinylation.

[11] = test system: lysine succinylation in liver peroxisomes; test: Lysine succinylation in liver peroxisomes and homogenates of WT versus Sirt5KO mice fed DC12; type: in vivo
Text: FIGS. 2A-2C. […] FIG. 2A) Livers from N=3 mice fed DC12 for 7 days, separated by Histodenz gradient centrifugation to yield pure peroxisomes and blotted with anti-succinyllysine (SucLys). ND lanes=one control mouse of each genotype fed normal diet. Peroxisome fraction is positive for peroxisome marker PMP70 but negative for mitochondrial Tim23 except for WT sample #2 which had minor mitochondrial contamination. FIG. 2B) Densitometry from panel (FIG. 2A) showing total SucLys signal normalized to PMP70. FIG. 2C) Liver homogenates from normal diet (ND) and Sirt5KO mice (N=4) were subjected to quantitative site-level mass spectrometry for succinylated peptides. The Y-axis is Log 2 fold-change for each peptide relative to wild-type (WT) on ND. Each dot is an individual peptide.
An important question was whether Sirt5, a deacylase that can reverse succinylation and glutarylation, would offset and reverse the effects of feeding DCAs.

[12] = Indirect calorimetry (CLAMS) in DC12-fed mice; type: in vivo
Text: FIGS. 9A-9D. DC12 increases whole-body energy expenditure and respiratory exchange ratio. Indirect calorimetry indicated increased whole-body respiration as measured in the CLAMS apparatus over 72 hrs, for both oxygen consumed (FIG. 9A) and carbon dioxide produced (FIG. 9B). […] The calculated energy expenditure in the DC12 group was higher (FIG. 9D).

[13] = Body weight, food intake, grip strength and body composition (EchoMRI) in DC12-fed mice; type: in vivo
Procedure: FIGS. 8A-8G. […] FIG. 8A, 8B) Mice were fed DC12 for 5 weeks. Body weight and food weights were measured 3 times per week. […] Forelimb peak force was measured with a grip strength meter and normalized to body weight.

Structure (SMILES): O=C(O)CCCCCCC(=O)O [DC8, octanedioic acid]
- kidney function ([1]; after ischemic injury): dramatically improved
- BUN [1]: lower
- kidney damage by H & E staining (dilated tubules, proteinaceous casts) [1]: reduced kidney damage; also recorded: marked reduction in kidney damage
- serum creatinine [1]: lower
- expression of the injury marker NGAL in proximal tubules [1]: markedly reduced
- lysine succinylation (Suc-Lys) PTMs in kidney ([2]; western blotting): dramatic increase; also recorded: stronger protein succinylation
- lysine succinylation (Suc-Lys) PTMs in liver ([2]; western blotting): not the liver
- interstitial fibrosis (trichrome) [3]: dramatically decreased

Structure (SMILES): O=C(O)CCCCCCCCC(=O)O [DC10, decanedioic acid]
- lysine succinylation (Suc-Lys) PTMs in kidney ([2]; western blotting): large increase; also recorded: stronger protein succinylation
- lysine succinylation (Suc-Lys) PTMs in liver ([2]; western blotting): moderate upregulation
- blood lactate after acute exercise stress test on a treadmill ([4]; single dose): significantly lowered

Structure (SMILES): O=C(O)CCCCCCCCCC(=O)O [DC11, undecanedioic acid]
- lysine glutarylation (Glu-Lys) in liver and kidney [5]: massive increase; also recorded: high-level protein glutarylation

Structure (SMILES): O=C(O)CCCCCCCCCCC(=O)O [DC12, dodecanedioic acid]
- reduction of serum bicarbonate by cisplatin-AKI ([6]; 18 mg/kg cisplatin i.p., day 3): mitigated; also recorded: improved functionality
- renal tubular injury by cisplatin (histology) ([6]; 18 mg/kg cisplatin i.p., day 3): mitigated; also recorded: less structural damage
- protection against injury in cisplatin model ([6]; mouse, in vivo): protected against injury
- BUN [1]: lower; also recorded: significantly reduced
- kidney damage by H & E staining (dilated tubules, proteinaceous casts) [1]: reduced kidney damage; also recorded: reduced the number of dilated tubules and proteinaceous casts
- serum creatinine [1]: lower; also recorded: significantly reduced
- expression of the injury marker NGAL in proximal tubules [1]: markedly reduced; also recorded: less induction
- reversibility of succinylation ([2]; 7-day washout after 7 days on DC12): reversible
- time at which succinylation becomes maximal ([2]; 10% DC12 for 0 to 7 days): 7 days
- time for succinylation to arise ([2]; 10% DC12 for 0 to 7 days): ≤ 1 days
- succinylation in muscle, heart, and brain ([2]; DC12 mixed into the diet, western blotting): no change
- lysine succinylation (Suc-Lys) PTMs in kidney ([2]; western blotting): massive increase; also recorded: moderate increase; also recorded: massive upregulation
- lysine succinylation (Suc-Lys) PTMs in liver ([2]; western blotting): massive increase; also recorded: large increase; also recorded: massive upregulation; also recorded: strongest protein succinylation
- blood lactate at exhaustion [7]: significantly reduced
- fasting glucose ([4]; two weeks on 10% DC12 diet): improved
- forelimb grip strength ([4]; two weeks on 10% DC12 diet): improved
- spontaneous locomotion ([4]; two weeks on 10% DC12 diet): improved
- time spent resting ([4]; two weeks on 10% DC12 diet): less
- blood glucose levels relative to control ([8]; 2 hr post-metformin injection): twice as high as control
- lactate levels, lower than control ([8]; 2 hr post-metformin injection): 50%
- mice that died ([8]; single 400 mg/kg dose of metformin): 0/12
- protein acetylation [9]: no changes were observed
- lysine succinylation in kidney ([10]; 7 days of 10% DC12, quantitative mass spectrometry): massively increased; also recorded: massive effects
- succinylation level of kidney peroxisomal proteins ([10]; compared to baseline (contralateral)): greatly increased
- protein expression in kidney ([10]; total protein abundance, quantitative mass spectrometry): very minimal if any effect
- lysine succinylation in liver peroxisomes, WT versus Sirt5-/- ([11]; 10% DC12 for 7 days, anti-succinyllysine blot): equal lysine succinylation
- succinylated peptides, fold-change relative to WT on normal diet ([11]; liver, quantitative mass spectrometry): very high fold-changes in succinylation in both genotypes; also recorded: increases lysine succinylation dramatically
- whole-body respiration, carbon dioxide produced ([12]; CLAMS over 72 hrs): increased
- whole-body respiration, oxygen consumed ([12]; CLAMS over 72 hrs): increased
- respiratory exchange ratio (RER) ([12]; dark period): shift toward a higher RER
- calculated energy expenditure ([12]; mouse, in vivo): higher
- fat mass ([13]; 5 weeks or 9 weeks, EchoMRI): reduces fat mass
- lean mass ([13]; 5 weeks or 9 weeks, EchoMRI): not altering lean mass
- liver fat (triacylglycerol, TAG) ([13]; at sacrifice): also reduced
- mass of the intra-abdominal fat pad (epididymal) ([13]; at sacrifice): significantly reduced
- body weight ([13]; fed DC12 for 5 weeks): reduced body weight
- food intake ([13]; fed DC12 for 5 weeks): without changing food intake
- muscle strength (forelimb peak force normalized to body weight) ([13]; grip strength meter): does not reduce muscle strength
